Test results reported in patent US3996205A, “Aminoglycoside antibiotics and intermediates” (The Upjohn Company, priority 1975, dated 1976).

How the values were obtained:
P. rettgeri UC 339 = assay: microplate test in BHI agar, P. rettgeri UC 339; type: cell-based; details: table 4, same conditions
Method: (§1) Compounds were also tested in a standard microplate test in Brain Heart Infusion (BHI) Agar, at a concentration of 1 mg/ml. Incubation is at 37° and end points are read at 20 hours. Brain Heart Infusion Agar (supplied by Difco Laboratories, Detroit, Michigan, U.S.A.) has the following composition:
(§2) Compounds (7β), (7α) and (9) were tested again along with compounds (11) and (14β) against a neamine control using the same conditions as given above.

S. typhi TG-3 = assay: microplate test in BHI agar, S. typhi TG-3; type: cell-based; details: table 4, same conditions
Method: as §1, §2

K. pneumoniae UC 58 = assay: microplate test in BHI agar, K. pneumoniae UC 58; type: cell-based; details: tested again (table 4), same conditions
Method: as §1, §2

S. hemolyticus UC 152 = assay: microplate test in BHI agar, S. hemolyticus UC 152; type: cell-based, Streptococcus hemolyticus; details: tested again (table 4), same conditions
Method: as §1, §2

## NC[C@H]1O[C@H](O[C@H]2[C@H](O)[C@@H](O)[C@H](N)C[C@@H]2N)[C@H](N)[C@@H](O)[C@@H]1O [Neamine, neamine]
P. rettgeri UC 339
  Minimum Inhibitory Concentration: 1000 µg/mL
S. typhi TG-3
  Minimum Inhibitory Concentration: 15.6 µg/mL
K. pneumoniae UC 58
  Minimum Inhibitory Concentration: 3.9 µg/mL
S. hemolyticus UC 152
  Minimum Inhibitory Concentration: 3.9 µg/mL
